Experimental data taken from article PMC10585379, “Hydrophobic moment drives penetration of bacterial membranes by transmembrane peptides” (The Journal of Biological Chemistry, 2023).
In brackets after ≈: the same amount, converted by molar mass. Where a SMILES comes first, the peptide text is derived from it. [ ]: non-standard residue; d: D form. Sar = CNCC(=O)O

Experiments:
E. coli K12 [1] = assay type: cell-based, Escherichia coli; details: E. coli K12, Mueller-Hinton broth, 50,000 CFU/well, up to 64 μM peptide, 37 °C, 20 h, OD 600 nm; concentration giving >99% reduction in growth; mean and standard deviation of the mean
Procedure: Overnight cultures of E. coli K-12 grown in Mueller-Hinton broth were incubated at 50,000 CFU/well with up to 64 μM of peptide in 96-well plates (Corning, Ref 3598). Plates were then incubated at 37 °C for 20 h, after which the optical density (OD) was measured at 600 nm. Minimum inhibitory concentration (MIC) was determined as the peptide concentration resulting in >99% reduction in growth.

E. coli K12 [2] = assay type: cell-based, Escherichia coli; details: E. coli K12 in M9 minimal media, 30 μM DiOC2(3) 5 min, 20 μM CCCP or 8 μM peptide, 37 °C, up to 180 min, ex 450/em 510 nm; duplicate, three independent days
Procedure: Overnight cultures of E. coli K12 grown in Luria-Bertani (LB) broth were pelleted and resuspended to an OD600 of 0.4 in M9 minimal media. Cultures were grown at 37 °C for 30 min prior to being incubated with 10 mM EDTA for 5 min. Cultures were pelleted again and resuspended in fresh M9 minimal media to remove EDTA before the addition of 30 μM 3,3′-diethyloxacarbocynanine iodide (DiOC2 ([3]); Invitrogen). […] Fluorescence was measured immediately at 37 °C every 3 min for up to 3 h using a SpectraMax Gemini EM microplate reader set to 450 nm excitation and 510 nm emission wavelengths. Fluorescence curves were normalized to wells containing only dye and then plotted and analyzed using GraphPad Prism 9. Data at 15-min intervals are presented as mean and standard deviation of the mean for ease of visualization. Experiments were performed in duplicate and repeated on three independent days.

[3] = Tryptophan quenching assay with dibrominated lipid LUVs; assay type: physicochemical; details: 5 μM peptide or BSA, peptide-to-lipid ratio of 62.5, 0-30% brominated lipid, Stern-Volmer plot; mean of three independent analyses
Procedure: Large unilamellar vesicles (LUVs) were prepared using methods previously described ([14]). Briefly, 1-palmitoyl-2-oleoyl-sn-glycero-3-phosphoethanolamine (POPE) and 1-palmitoyl-2-oleoyl-sn-glycero-3-phospho-(1′-rac-glycerol) (POPG) (Avanti Polar Lipids) were combined in a 3:1 ratio, respectively, in chloroform and dried to a film before water washing and lyophilizing into a powder. This powder was resuspended in Tris-Cl buffer (10 mM Tris, 10 mM NaCl, pH 7), freeze-thawed 5× (dry ice – 50 °C water bath) and extruded through a mini-extruder fitted with a 0.2 μm Whatman Nuclepore polycarbonate membrane filter (Cytiva) at least 15× to form LUVs. Where applicable, 1-palmitoyl-2-(6,7-dibromo)stearoyl-sn-glycero-3-phosphocholine (PC-Br ([6], [7])) or 1-palmitoyl-2-(11,12-dibromo)stearoyl-sn-glycero-3-phosphocholine (PC-Br ([11], [12])) (Avanti Polar Lipids) were substituted for POPE at the given percentages and incorporated into LUVs as described.
Brominated lipid-containing LUVs (0%, 10%, 20%, and 30%) were combined with 5 μM peptide and tryptophan emission fluorescence was recorded from 300 to 400 nm using a 280 nm excitation wavelength. Fluorescence spectra were plotted and the area under the curve was used to generate a Stern-Volmer plot of initial fluorescence/quenched fluorescence (Fo/F) against percentage brominated lipid. […]

[4] = Circular dichroism, peptide secondary structure; assay type: physicochemical; details: 20 μM peptide, 10 mM Tris-Cl, 10 mM NaCl, pH 7, minima at 208 and 222 nm, average of three independent analyses
Procedure: Circular dichroism (CD) spectra of peptides were recorded between 190 and 250 nm on a Jasco J-1500 CD spectropolarimeter using a 0.1 cm pathlength quartz cuvette, scanning at […] with three accumulations. Peptide spectra were acquired in either water, 20% acetonitrile, 140 mM sodium dodecyl sulfate (SDS), or 3:1 POPE:POPG, in buffer (10 mM Tris-Cl, 10 mM NaCl, pH 7), at a constant peptide concentration of 20 μM and then plotted using GraphPad Prism 9. Data are presented from 200 to 250 nm for ease of visualization. Raw millidegree (mdeg) spectra were background subtracted and converted to mean residue ellipticity (MRE) using Equation 1 below, where c is the concentration in μM, l is the pathlength in cm, and n is the number of residues.(1) MRE=100(mdeg)/cln
Using the MRE value at 222 nm, the peptide helical percentage was estimated using Equation 2 below ([45], [46]), where MRE222 is the MRE value at 222 nm and n is the number of peptide bonds.(2) %Helix=100(MRE222/(−39,500(1−2.57/n)))

Row | Compound | MIC (E. coli K12 [1]) | Dissipation of the proton motive force (DiOC2(3) RFU) (E. coli K12 [2]) | Tryptophan fluorescence quenching by PC-Br(11,12)-containing LUVs (depth of insertion) [3] | Peptide secondary structure in the aqueous phase (CD) [4]
1 | CC[C@H](C)[C@H](NC(=O)[C@H](C)NC(=O)[C@H](CC(C)C)NC(=O)CNC(=O)CNC(=O)[C@H](C)NC(=O)[C@H](CC(C)C)NC(=O)[C@H](CCSC)NC(=O)[C@@H](NC(=O)[C@@H](NC(=O)[C@@H](NC(=O)[C@H](C)NC(=O)[C@@H](NC(=O)[C@@H](NC(=O)[C@H](Cc1c[nH]c2ccccc12)NC(=O)[C@H](C)NC(=O)[C@H](Cc1ccccc1)NC(=O)[C@@H](NC(=O)[C@@H]1CCCN1C(=O)CN(C)C(=O)CN(C)C(=O)CN(C)C(=O)[C@H](C)NC(C)=O)[C@@H](C)CC)C(C)C)[C@@H](C)CC)[C@@H](C)CC)[C@@H](C)CC)[C@@H](C)CC)C(=O)N[C@@H](CC(C)C)C(=O)N[C@@H](CCCCN)C(=O)N[C@@H](CC(C)C)C(=O)N[C@@H](CCCCN)C(=O)N[C@@H](CCCCN)C(=O)N[C@@H](CCCCN)C(=O)N[C@@H](CCCCN)C(N)=O [TM1-1] (Ac-A[Sar][Sar][Sar]PIFAWVIAIIIMLAGGLAILKLKKKK-NH2) | >64 µM | re-establish the PMF back in the range of untreated cultures |  | 
2 | CC[C@H](C)[C@H](NC(=O)[C@H](C)NC(=O)[C@@H](NC(=O)[C@H](CC(C)C)NC(=O)[C@@H](NC(=O)[C@H](Cc1c[nH]c2ccccc12)NC(=O)CNC(=O)[C@H](C)NC(=O)[C@H](CCSC)NC(=O)[C@H](C)NC(=O)CNC(=O)[C@H](Cc1ccccc1)NC(=O)[C@@H](NC(=O)[C@H](CC(C)C)NC(=O)[C@H](CC(C)C)NC(=O)[C@@H](NC(=O)[C@@H]1CCCN1C(=O)[C@@H](NC(=O)CN(C)C(=O)CN(C)C(=O)CN(C)C(=O)[C@H](C)NC(C)=O)C(C)C)[C@@H](C)CC)[C@@H](C)CC)[C@@H](C)CC)[C@@H](C)CC)C(=O)N[C@H](C(=O)N[C@@H](C)C(=O)N[C@@H](CCCCN)C(=O)N[C@@H](CC(C)C)C(=O)N[C@@H](CCCCN)C(=O)N[C@@H](CCCCN)C(=O)N[C@@H](CCCCN)C(=O)N[C@@H](CCCCN)C(N)=O)[C@@H](C)CC [TM1-2] (Ac-A[Sar][Sar][Sar]VPILLIFGAMAGWILIAIIAKLKKKK-NH2) | >64 µM | re-establish the PMF back in the range of untreated cultures |  | 
3 | CC[C@H](C)[C@H](NC(=O)CN)C(=O)NCC(=O)N[C@@H](C)C(=O)N[C@H](C(=O)N[C@@H](CC(C)C)C(=O)N[C@@H](CCCCN)C(=O)N[C@H](C(=O)N[C@@H](CC(C)C)C(=O)N[C@H](C(=O)N[C@H](C(=O)NCC(=O)N[C@@H](CC(C)C)C(=O)N1CCC[C@H]1C(=O)N[C@@H](C)C(=O)N[C@@H](CC(C)C)C(=O)N[C@H](C(=O)N[C@@H](CO)C(=O)N[C@@H](Cc1c[nH]c2ccccc12)C(=O)N[C@H](C(=O)N[C@@H](CCCCN)C(=O)N[C@@H](CCCNC(=N)N)C(=O)N[C@@H](CCCCN)C(=O)N[C@@H](CCCNC(=N)N)C(=O)N[C@@H](CCC(N)=O)C(=O)N[C@@H](CCC(N)=O)C(N)=O)[C@@H](C)CC)[C@@H](C)CC)[C@@H](C)O)[C@@H](C)O)C(C)C)C(C)C [Melittin, reference compound] | 5 ± 2 µM (≈ 14.2 µg/mL) |  |  | 
4 | CC[C@H](C)[C@H](NC(=O)CNC(=O)[C@H](CC(C)C)NC(=O)[C@H](Cc1c[nH]c2ccccc12)NC(=O)[C@H](C)NC(=O)[C@@H](NC(=O)[C@@H](NC(=O)[C@H](CCSC)NC(=O)[C@@H](NC(=O)[C@H](C)NC(=O)[C@H](Cc1ccccc1)NC(=O)[C@H](C)NC(=O)[C@H](CC(C)C)NC(=O)[C@H](CC(C)C)NC(=O)CNC(=O)[C@@H]1CCCN1C(=O)[C@@H](NC(=O)CN(C)C(=O)CN(C)C(=O)CN(C)C(=O)[C@H](C)NC(C)=O)C(C)C)[C@@H](C)CC)[C@@H](C)CC)[C@@H](C)CC)C(=O)N[C@@H](C)C(=O)N[C@H](C(=O)N[C@H](C(=O)N[C@@H](CCCCN)C(=O)N[C@@H](CC(C)C)C(=O)N[C@@H](CCCCN)C(=O)N[C@@H](CCCCN)C(=O)N[C@@H](CCCCN)C(=O)N[C@@H](CCCCN)C(N)=O)[C@@H](C)CC)[C@@H](C)CC [TM1-3] (Ac-A[Sar][Sar][Sar]VPGLLAFAIMIIAWLGIAIIKLKKKK-NH2) | >64 µM |  | penetrate deeper into the lipid bilayer | 
5 | CC[C@H](C)[C@H](NC(=O)[C@H](C)NC(=O)[C@H](CCSC)NC(=O)[C@H](C)NC(=O)[C@@H](NC(=O)[C@H](Cc1ccccc1)NC(=O)CNC(=O)[C@H](CC(C)C)NC(=O)[C@H](CC(C)C)NC(=O)CNC(=O)[C@@H]1CCCN1C(=O)[C@@H](NC(=O)CN(C)C(=O)CN(C)C(=O)CN(C)C(=O)[C@H](C)NC(C)=O)C(C)C)[C@@H](C)CC)C(=O)N[C@@H](Cc1c[nH]c2ccccc12)C(=O)N[C@H](C(=O)N[C@@H](CC(C)C)C(=O)N[C@H](C(=O)N[C@@H](C)C(=O)N[C@H](C(=O)N[C@H](C(=O)N[C@@H](C)C(=O)N[C@@H](CCCCN)C(=O)N[C@@H](CC(C)C)C(=O)N[C@@H](CCCCN)C(=O)N[C@@H](CCCCN)C(=O)N[C@@H](CCCCN)C(=O)N[C@@H](CCCCN)C(N)=O)[C@@H](C)CC)[C@@H](C)CC)[C@@H](C)CC)[C@@H](C)CC [TM1-4] (Ac-A[Sar][Sar][Sar]VPGLLGFIAMAIWILIAIIAKLKKKK-NH2) | >64 µM |  | penetrate deeper into the lipid bilayer | strongest helix
6 | carbonyl cyanide m-chlorophenylhydrazine [CCCP, reference compound] |  | immediate increase in RFU |  | 
